Laboratory results published in article PMC8165606, “Effects of Natural Monoamine Oxidase Inhibitors on Anxiety-Like Behavior in Zebrafish” (Frontiers in Pharmacology, 2021).
Where a name gives a salt, the structure may show the parent alone. Read-outs that look alike come from different tables or passages of the source.

Columns and labels:
zebrafish = conditions: for NTT time spent at the top and bottom: 20 min treatment, 5 min test
Method: Adult male and female wild-type zebrafish were treated with the compounds for 20 min in a final volume of 50 ml in a 250-ml treatment beaker, one fish at a time. […] If not, the concentration was reduced until no obvious signs of tolerability problems (e.g., seizure-like tail or body movement) were observed.
Following compound treatment in a 250 ml beaker, the fish were briefly rinsed in fresh system water, and then immediately transferred to a trapezoidal tank (14.6 cm height x 5.5 cm width x 27.9 cm top length and x 23.6 cm bottom length) filled with 1.5 L system water (Figure 1B). The behavior of the fish was monitored for the next 5 min by using the Noldus EthoVision XT system (Wageningen, Netherlands), with the camera placed approximately 1 m from the test tank (Figure 1C). The water-filled part of the tank (11.5 cm height) was virtually divided into top, center, and bottom (Figure 1B). The average time spent at the top and bottom portions of the tank was analyzed to determine the anxiety-like behavior of fish. […] The experimenters were blind to the test conditions. A minimum of 12 fish (6 females and 6 males) per condition were used for the study.
The behavioral findings were analyzed in 1 min bins using two-way repeated measures ANOVA with Dunnett post hoc analysis. The analyses were conducted by using GraphPad Prism v8.2.1 (GraphPad Software, San Diego, CA, United States).

MAO-A and MAO-B [1] = system: MAO-A and MAO-B; parameters: method as in Fisar et al., 2010; conditions: crude pig brain mitochondrial fractions ref Fisar et al., 2010; cited from earlier work
MAO-A and MAO-B [2] = conditions: cited from earlier work
MAO B = target: T1, MAO B (Homo sapiens, UniProt P27338); experiment: MAO-Glo two-step bioluminescent assay, MAO B; type: biochemical; conditions: mean ± SEM; substrate 3 µM
T1 sequence (P27338 1-520): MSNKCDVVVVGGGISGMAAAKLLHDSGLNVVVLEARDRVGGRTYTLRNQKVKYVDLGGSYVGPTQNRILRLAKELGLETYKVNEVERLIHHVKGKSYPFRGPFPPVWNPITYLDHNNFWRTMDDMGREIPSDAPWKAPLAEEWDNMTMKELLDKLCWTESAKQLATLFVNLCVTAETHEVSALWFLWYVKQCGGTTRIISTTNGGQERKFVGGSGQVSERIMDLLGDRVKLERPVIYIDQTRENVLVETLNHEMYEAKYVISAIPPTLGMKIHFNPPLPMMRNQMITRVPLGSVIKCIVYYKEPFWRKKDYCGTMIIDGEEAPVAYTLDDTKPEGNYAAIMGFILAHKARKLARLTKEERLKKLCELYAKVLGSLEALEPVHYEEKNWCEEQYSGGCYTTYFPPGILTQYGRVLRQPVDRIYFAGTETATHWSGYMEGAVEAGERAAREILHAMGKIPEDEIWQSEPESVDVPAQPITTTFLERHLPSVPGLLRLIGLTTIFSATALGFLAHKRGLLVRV
Text: (§1) Fluostar Omega 96 Microplate reader (BMG LABTECH GmbH, Ortenberg, Germany) was used to measure the luminescent signal and to determine the IC50 (half maximal inhibitory concentration).

MAO A = target: T2, MAO A (Homo sapiens, UniProt P21397); experiment: MAO-Glo two-step bioluminescent assay, MAO A; type: biochemical; conditions: for Selectivity between MAO A and B: present study
T2 sequence (P21397 1-527): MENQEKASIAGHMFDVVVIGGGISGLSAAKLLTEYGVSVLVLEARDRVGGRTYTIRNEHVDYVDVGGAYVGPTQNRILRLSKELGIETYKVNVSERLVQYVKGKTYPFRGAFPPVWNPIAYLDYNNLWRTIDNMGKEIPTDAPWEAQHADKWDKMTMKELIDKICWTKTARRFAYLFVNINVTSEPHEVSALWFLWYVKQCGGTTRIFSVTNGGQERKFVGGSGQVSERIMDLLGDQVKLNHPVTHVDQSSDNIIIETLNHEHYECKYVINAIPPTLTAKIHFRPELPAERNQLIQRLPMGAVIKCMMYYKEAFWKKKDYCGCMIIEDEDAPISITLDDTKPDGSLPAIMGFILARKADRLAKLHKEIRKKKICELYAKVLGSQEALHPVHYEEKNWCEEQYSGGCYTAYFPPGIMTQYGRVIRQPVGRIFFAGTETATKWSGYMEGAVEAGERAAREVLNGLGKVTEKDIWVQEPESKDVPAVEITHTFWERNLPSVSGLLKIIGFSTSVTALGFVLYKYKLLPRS
Text: as §1

serotonin receptor = experiment: Pilot in vitro serotonin receptor binding (data not shown); conditions: pilot study in vitro
[3] = system: norepinephrine transporter; experiment: Pilot in vitro norepinephrine transporter binding (data not shown); conditions: pilot study in vitro
zebrafish brain = experiment: Ex vivo bioavailability assay in fish brain (UPLC-HRMS or GC/MS); conditions: relative brain level per 1 mg/L
Method: The fish were decapitated at the level of the gills by using a surgical knife. The head was turned dorsal side down, and, soft tissue was removed from the ventral side of the skull using two forceps until the base of the skull was exposed. The skull was broken open, and the bone from the ventral side of the brain was removed. The brain was then placed in a microcentrifuge tube, weighed, snap-frozen in liquid nitrogen, and stored at −80°C until the analysis.
Briefly, on the day of analysis, the brain samples were defrosted, resuspended in a methanol solution (2:1 [v/v] methanol:MilliQ water), and homogenized with vigorous agitation and ultrasonication (5 min each). The homogenate was centrifuged at 15,000 x rpm for 10 min, and the supernatant was analyzed by using a UPLC-Q Exactive Orbitrap-HRMS system (Thermo Fisher Scientific™, Bremen, Germany) for all compounds except for TMN, which was analyzed by gas chromatography/mass spectrometry (GC/MS) system. Chromatographic separation was achieved on a Synergi™ 4-µm Hydro-RP 80 Å, L.C. […]
For TMN, the Agilent GC/MS system (Agilent, Santa Clara, CA, United States) was used, because it is an apolar aromatic compound that could not be ionized for the detection by the UPLC-Q Exactive Orbitrap-HRMS system. […] The results were quantified using Agilent MS Workstation software (v6.9.3).

[4] = two highest concentrations tested
[5] = all concentrations tested, throughout the test period

O=C1CC2(CCCC2)CC(=O)N1CCCCN1CCN(c2ncccn2)CC1 [buspirone, Buspirone hydrochloride, reference compound]
NTT time spent at the top and bottom, treatment effect (zebrafish; 10, 30 and 100 mg/L, two-way ANOVA): significant treatment effect
Tolerability in zebrafish (zebrafish; zebrafish, in vivo): borderline of tolerability

C#CCN(C)Cc1ccccc1 [Pargyline, pargyline hydrochloride]
NTT time spent at the top and bottom (zebrafish; 10 mg/L): only an anxiogenic-like effect, but only for the first 1 min of the test
NTT total distance traveled (zebrafish; [4]): significantly reduced
Difference between the Ki values of MAO-A and MAO-B (MAO-A and MAO-B [1]): 1.4 fold
Difference in Ki values of MAO-A and MAO-B (MAO-A and MAO-B [2]; recombinant human enzymes ref Oh et al., 2020): > 100 fold
Difference in Ki values of MAO-A and MAO-B (MAO-A and MAO-B [2]; recombinant human enzymes ref Takao et al., 2019): 21 fold

CC1=C(C)C(=O)c2cc(C)ccc2C1=O [TMN, 2,3,6-trimethyl-1,4-naphtoquinone]
NTT time spent at the top and bottom (zebrafish; 10 mg/L): only an anxiogenic-like effect during the last couple of minutes
NTT time spent at the top and bottom (zebrafish; 30 mg/L): mix of both anxiolytic- and anxiogenic-like behaviors
NTT total distance traveled (zebrafish; [5]): significantly reduced
Tolerability in zebrafish (zebrafish; highest concentrations tested, relatively high number of fish with long freezing): borderline of tolerability
NTT freezing time (zebrafish; [4]): increased the freezing time
IC50 (MAO B): 7140 ± 2290 nM
IC50 (MAO A; mean ± SEM, substrate 20 µM, read-out: MAO a IC50): 1140 ± 740 nM
Selectivity between MAO A and B (MAO A): no selectivity

c1ccc2c(c1)[nH]c1cnccc12 [Norharmane, norharmane]
NTT time spent at the top and bottom (zebrafish; 0.3 mg/L): no effect
NTT time spent at the top and bottom (zebrafish; 1 mg/L): significant effect between 2 and 3 min of the test
NTT time spent at the top and bottom (zebrafish; 3 mg/L): increased the time spent at the top and decreased the time spent at the bottom during the last 2 min
NTT total distance traveled (zebrafish; highest concentration tested): significantly reduced
Serotonin receptor binding activity (serotonin receptor): ~10 µM
Norepinephrine transporter binding activity [3]: ~10 µM

Cc1nccc2c1[nH]c1ccccc12 [Harmane]
NTT time spent at the top and bottom (zebrafish; 1 mg/L): increased the time spent at the top and decreased the time spent at the bottom during the first minute
NTT time spent at the top and bottom (zebrafish; 3 mg/L): increased the time spent at the top and decreased the time spent at the bottom during the first minute
NTT time spent at the top and bottom (zebrafish; 10 mg/L): no effect
NTT total distance traveled (zebrafish; [5]): significantly reduced
NTT freezing time (zebrafish; highest concentration tested): increased the freezing time during the first 2 min
Serotonin receptor binding activity (serotonin receptor): ~10 µM
IC50 (MAO B): > 100000 nM
Norepinephrine transporter binding activity [3]: ~10 µM
Brain level relative to the rest of compounds tested (zebrafish brain): approximately 10 fold
IC50 (MAO A): 50 ± 30 nM
MAO-A selectivity over MAO-B (MAO A; from IC50 values): > 2,000 fold
Selectivity between MAO A and B (MAO A): only MAO A selective inhibitor

C#CCN(C)CCCOc1ccc(Cl)cc1Cl [Clorgyline, clorgyline hydrochloride, reference compound]
NTT time spent at the top and bottom (zebrafish; 10 mg/L): no effect
NTT time spent at the top and bottom (zebrafish; 30 mg/L): significantly increasing it only during the last 2 min
NTT time spent at the top and bottom (zebrafish; 100 mg/L): increasing the time spent at the top for almost the entire test period
NTT total distance traveled (zebrafish; [4]): significantly reduced
Tolerability in zebrafish (zebrafish; zebrafish, in vivo): borderline of tolerability

c1ccc2c(c1)CCNC2 [TIQ, 1,2,3,4-tetrahydroisoquinoline]
NTT time spent at the top and bottom (zebrafish; 10 mg/L): no effect
NTT time spent at the top and bottom (zebrafish; 30 mg/L): generally increased and decreased the time spent at the top and bottom, respectively
NTT time spent at the top and bottom (zebrafish; 100 mg/L): generally increased and decreased the time spent at the top and bottom, respectively
Effect on general movement in NTT (zebrafish; 10, 30 and 100 mg/L): no observable effect on general movement
